For three molecules, inhibition in vivo and Activity results are on record in ChEMBL document CHEMBL1148183, “Anti-inflammatory activity of two flavonoids from Tanacetum microphyllum” (1993).

Assay [1] concerns Mus musculus. The assay can be described thus: Antiinflammatory activity against carrageenan-induced paw edema in Swiss mouse at 10 mg/kg, po administered 1 hr before carrageenan challenge measured after 5 hrs. Format: functional. On the technique in general: The carrageenan paw model is a standard test of acute inflammation.
For assay [2], the system named is Mus musculus. The experiment in a line: Antiinflammatory activity against carrageenan-induced paw edema in Swiss mouse at 10 mg/kg, po administered 1 hr before carrageenan challenge measured after 3 hrs. It is filed as functional.
The subject of assay [3] is Mus musculus. The assay can be described thus: Antiinflammatory activity against carrageenan-induced paw edema in po dosed Swiss mouse administered 1 hr before carrageenan challenge measured after 7 hrs. It is filed as functional, organism-based.
For assay [4], the system named is Mus musculus. The assay can be described thus: Antiinflammatory activity against carrageenan-induced paw edema in Swiss mouse at 25 mg/kg, po administered 1 hr before carrageenan challenge measured after 5 hrs. It is filed as functional.
Assay [5] deals with Mus musculus. The experiment in a line: Antiinflammatory activity against carrageenan-induced paw edema in Swiss mouse at 25 mg/kg, po administered 1 hr before carrageenan challenge measured after 3 hrs. It is filed as functional.
In assay [6] the test system is Mus musculus. The experiment in a line: Antiinflammatory activity against carrageenan-induced paw edema in Swiss mouse at 80 mg/kg, po administered 1 hr before carrageenan challenge measured after 3 hrs. It is filed as functional.
Assay [7] relates to Mus musculus. The assay can be described thus: Antiinflammatory activity against carrageenan-induced paw edema in Swiss mouse at 80 mg/kg, po administered 1 hr before carrageenan challenge measured after 5 hrs. It is filed as functional.

Calls of active or inactive are those of the source. No cut-off for these calls is given here.

By inhibition in vivo is commonly meant the change of the read-out against control, counted positive when it falls. A low value points to a weak effect. For the molecule `COC(=O)c1cc(O)c2c(=O)c(O)c(-c3ccc(OC)c(O)c3)oc2c1`, the inhibition in vivo at 10 mg/kg stood at 52.7% with Mus musculus [1] and 64.9% in the assay with Mus musculus [2]. In the assay on Mus musculus [3], the result was Active.

For `COc1ccc(-c2oc3cc(O)c(OC)c(O)c3c(=O)c2OC)cc1O` [CENTAUREIDIN], the values for the inhibition in vivo at 25 mg/kg in the assay with Mus musculus [4] and in the assay on Mus musculus [5] were 55.5% and 67.6%, respectively.

For `CCCCC1C(=O)N(c2ccccc2)N(c2ccccc2)C1=O` [PHENYLBUTAZONE], the inhibition in vivo at 80 mg/kg in the assay with Mus musculus [6] stood at 51.4%; in the assay with Mus musculus [7], 47.2%.
